Laboratory results reported in patent US20210290676A1, “IMPROVING THE EFFICACY AND SAFETY OF ADOPTIVE CELLULAR THERAPIES” (University of Southern California, priority 2018, published 2021).

What was measured:
Assay type in all cases: cell-based, human
[1] = system: Pgp+ (DiOC2(3)-dye effluxing) T cells; experiment: DiOC2(3) dye efflux flow cytometry of inhibitor-treated T cells; conditions: for p2: pgp+ from Live cells: treatment for 13 days, IL2 + CD3 and CD28 antibodies
Protocol: (§1) The use of P-glycoprotein (Pgp)-mediated efflux of DiOC2(3) to isolate stem like T cells for adoptive cellular therapy has been described in application no. […] In the following examples, DiOC2(3) staining was used to study the effect of different inhibitors on generation of stem like T cells.
(§2) DAY 0: Blood was obtained from unidentified donor. After RBC lysis, PBMC were collected using Ficoll-Hypaque separation. […] T cells were cultured in three different conditions: • 1. XVIVO 15 medium (Lonza) with IL2 50 IU/ml, CD3 antibody (30 ng/ml) and CD28 antibody (30 ng/ml). • 2. XVIVO 15 medium (Lonza) with CD3 antibody (30 ng/ml) and CD28 antibody (30 ng/ml). • 3. XVIVO 15 medium (Lonza) with IL2 50 IU/ml DAY 1: Cells were plated in a 6-well plate at a density of 1 million cells in 2 ml/of media (as described above) and treated with different inhibitors
(§3) The cell growth medium was changed in 6-well plates and fresh drugs were added at same concentration for one more week.
(§4) […] (DAY 11): Culture medium was changed and fresh drugs were added in 6-well plates.
(§5) Subsequently, cells were washed with RPMI medium and dye was effluxed at 37° C. for 90 min. Cells were washed with […], stained with CD62L-APC (5 μl/100 μl/sample) at 4° C. for 1 h, washed twice with PBS+1% FBS and analyzed on flow cytometer to check if these drugs treatment leads to increase in Pgp+/CD62L positive population.
(§6) Day 0: Blood was obtained from unidentified donor. After RBC lysis, PBMC were collected using Ficoll-Hypaque separation. 200 million T cells were isolated from PBMCs using CD3 microbeads. T cells were cultured overnight in XVIVO 15 medium (Lonza) with IL2 (50 IU/ml), 30 ng/ml of CD3 and CD28 antibodies
(§7) Day 1: Cells were plated in 24-well plates at a density of 0.3 million cells/ml in each well and treated with different drugs.
(§8) On day 7, culture medium was replaced with fresh medium with fresh drugs.
(§9) On day 13, culture medium was replaced with fresh medium and fresh drugs. Half of the cells were transferred to 6-well plates.
(§10) Day 14: An aliquot of cells with all the treatments listed above (for 13 days) was used to stain the cells with DiOC2(3) (60 ng/ml in RPMI medium) at 4° C. for 40 min, washed with RPMI medium, DiOC2(3) dye was effluxed at 37° C. for 90 min, washed with PBS+1% FBS, stained with CD62L-APC antibody. CD62L is a marker for resting T cells. (5 μl/100 μl/sample) at 4° C. for 1 h, washed twice with PBS+1% FBS and analyzed on flow cytometer to check if these drugs are affecting the dye-effluxing or Pgp+ (i.e., DiOC2(3)-dull) T-cell population.

[2] = system: CD45RA+CCR7+CD62L+ T cells; experiment: Flow cytometry for CD45RA, CCR7 and CD62L on inhibitor-treated T cells (all T cells); conditions: for % of CD62L+CCR7+ double positive cells out of CD45RA+ cells in live T cell population: 13 days treatment; for GATE P6 CD45RA(FITC)+, CCR7 (PE)+, CD62L(APC): cells cultured for 14 days
Protocol: as §2
(§11) A second aliquot of the cells cultured for 13 days with all the treatments listed above (1-21) was washed with PBS+1% FBS, stained with CD8-PerCP, CD45RA-FITC, CCR7-PE and CD62L-APC ([…] for each of 4 antibodies) at 4° C. for 1 h, washed twice with […] and analyzed on flow cytometer to check if these drugs are enriching T stem cells showing surface expression of CD8+CD45RA+CCR7+CD62L+.
as §6, §7, §8, §9
(§12) A second aliquot of the cells cultured for 14 days with all the treatments listed above was washed with PBS+1% FBS, stained with CD8-PerCP, CD45RA-FITC, CCR7-PE and CD62L-APC (5 ul/100 ul/sample for each of 4 antibodies) at 4° C. for 1 h, washed twice with PBS+1% FBS and analyzed on flow cytometer to check if these drugs are enriching for T cells showing surface expression of CD8+CD45RA+CCR7+CD62L+.

[3] = system: Pgp+ (DiOC2(3)-dye effluxing cells) and CD62L+ T cells; experiment: DiOC2(3) dye efflux plus CD62L-APC staining, flow cytometry of inhibitor-treated T cells; conditions: for p5: double +ve pgp+ and CD62L-APC+ from Live cells: treatment for 13 days, IL2 + CD3 and CD28 antibodies
Protocol: as §1, §2, §3, §4, §5, §6, §7, §8, §9, §10

[4] = system: CD8+CD45RA+CCR7+CD62L+ T cells; experiment: Flow cytometry for CD8, CD45RA, CCR7 and CD62L on inhibitor-treated T cells; conditions: for % of CD62L+CCR7+ double positive cells out of CD45RA+ cells in CD8+ T cell population: 13 days of treatment; for GATE P4 CD8(PerCP)+, CD45RA(FITC)+, CCR7 (PE)+, CD62L(APC): cells cultured for 14 days
Protocol: as §2, §11, §6, §7, §8, §9, §12

[5] = culture with CD3 antibody, CD28 antibody and IL2, 6 days of treatment, 500 nM
[6] = CD3-CD28-IL2 culture, inhibitor 100 nM
[7] = CD3-CD28-IL2 culture, inhibitor 500 nM
[8] = CD3-CD28-IL2 culture, inhibitor 1 μM
[9] = CD3-CD28 culture, inhibitor 100 nM
[10] = CD3-CD28 culture, inhibitor 500 nM
[11] = CD3-CD28 culture, inhibitor 1 μM
[12] = CD3-IL2 culture, inhibitor 100 nM
[13] = CD3-IL2 culture, inhibitor 500 nM
[14] = CD3-IL2 culture, inhibitor 1 μM

Structure (SMILES): CCCc1cc(C)[nH]c(=O)c1CNC(=O)c1cc(-c2ccnc(N3CCN(C)CC3)c2)cc2c1cnn2C(C)C [GSK343]
- % of Pgp+ cells out of live cells ([1]; CD3-CD28-IL2 culture, inhibitor 100 nM, 6 days of treatment): 23.29%
- % of Pgp+ cells out of live cells ([1]; CD3-CD28-IL2 culture, inhibitor 100 nM, 13 days of treatment): 27.15%
- % of Pgp+ cells out of live cells ([1]; CD3-CD28-IL2 culture, inhibitor 500 nM, 6 days of treatment): 30.62%
- % of Pgp+ cells out of live cells ([1]; CD3-CD28-IL2 culture, inhibitor 500 nM, 13 days of treatment): 18.00%
- % of Pgp+ cells out of live cells ([1]; CD3-CD28-IL2 culture, inhibitor 1 μM, 6 days of treatment): 28.03%
- % of Pgp+ cells out of live cells ([1]; CD3-CD28-IL2 culture, inhibitor 1 μM, 13 days of treatment): 23.42%
- % of Pgp+ cells out of live cells ([1]; CD3-CD28 culture, inhibitor 100 nM, 6 days of treatment): 48.43%
- % of Pgp+ cells out of live cells ([1]; CD3-CD28 culture, inhibitor 100 nM, 13 days of treatment): 11.66%
- % of Pgp+ cells out of live cells ([1]; CD3-CD28 culture, inhibitor 500 nM, 6 days of treatment): 47.09%
- % of Pgp+ cells out of live cells ([1]; CD3-CD28 culture, inhibitor 500 nM, 13 days of treatment): 10.34%
- % of Pgp+ cells out of live cells ([1]; CD3-CD28 culture, inhibitor 1 μM, 6 days of treatment): 46.26%
- % of Pgp+ cells out of live cells ([1]; CD3-CD28 culture, inhibitor 1 μM, 13 days of treatment): 9.43%
- % of Pgp+ cells out of live cells ([1]; CD3-IL2 culture, inhibitor 100 nM, 6 days of treatment): 25.49%
- % of Pgp+ cells out of live cells ([1]; CD3-IL2 culture, inhibitor 100 nM, 13 days of treatment): 20.31%
- % of Pgp+ cells out of live cells ([1]; CD3-IL2 culture, inhibitor 500 nM, 6 days of treatment): 25.21%
- % of Pgp+ cells out of live cells ([1]; CD3-IL2 culture, inhibitor 500 nM, 13 days of treatment): 23.54%
- % of Pgp+ cells out of live cells ([1]; CD3-IL2 culture, inhibitor 1 μM, 6 days of treatment): 28.31%
- % of Pgp+ cells out of live cells ([1]; CD3-IL2 culture, inhibitor 1 μM, 13 days of treatment): 17.50%
- percentage of Pgp+ cells [1, 5]: 30.62%
- % of CD62L+CCR7+ double positive cells out of CD45RA+ cells in live T cell population [2, 6]: 66.40%
- % of CD62L+CCR7+ double positive cells out of CD45RA+ cells in live T cell population [2, 7]: 64.47%
- % of CD62L+CCR7+ double positive cells out of CD45RA+ cells in live T cell population [2, 8]: 67.37%
- % of CD62L+CCR7+ double positive cells out of CD45RA+ cells in live T cell population [2, 9]: 75.26%
- % of CD62L+CCR7+ double positive cells out of CD45RA+ cells in live T cell population [2, 10]: 67.97%
- % of CD62L+CCR7+ double positive cells out of CD45RA+ cells in live T cell population [2, 11]: 76.18%
- % of CD62L+CCR7+ double positive cells out of CD45RA+ cells in live T cell population [2, 12]: 58.51%
- % of CD62L+CCR7+ double positive cells out of CD45RA+ cells in live T cell population [2, 13]: 61.18%
- % of CD62L+CCR7+ double positive cells out of CD45RA+ cells in live T cell population [2, 14]: 61.06%
- % of Pgp+ CD62L+cells out of live cells ([3]; CD3-CD28-IL2 culture, inhibitor 100 nM, 6 days treatment): 8.57%
- % of Pgp+ CD62L+cells out of live cells ([3]; CD3-CD28-IL2 culture, inhibitor 100 nM, 13 days treatment): 7.96%
- % of Pgp+ CD62L+cells out of live cells ([3]; CD3-CD28-IL2 culture, inhibitor 500 nM, 6 days treatment): 13.33%
- % of Pgp+ CD62L+cells out of live cells ([3]; CD3-CD28-IL2 culture, inhibitor 500 nM, 13 days treatment): 4.79%
- % of Pgp+ CD62L+cells out of live cells ([3]; CD3-CD28-IL2 culture, inhibitor 1 μM, 6 days treatment): 12.05%
- % of Pgp+ CD62L+cells out of live cells ([3]; CD3-CD28-IL2 culture, inhibitor 1 μM, 13 days treatment): 5.75%
- % of Pgp+ CD62L+cells out of live cells ([3]; CD3-CD28 culture, inhibitor 100 nM, 6 days treatment): 23.35%
- % of Pgp+ CD62L+cells out of live cells ([3]; CD3-CD28 culture, inhibitor 100 nM, 13 days treatment): 2.50%
- % of Pgp+ CD62L+cells out of live cells ([3]; CD3-CD28 culture, inhibitor 500 nM, 6 days treatment): 24.79%
- % of Pgp+ CD62L+cells out of live cells ([3]; CD3-CD28 culture, inhibitor 500 nM, 13 days treatment): 2.12%
- % of Pgp+ CD62L+cells out of live cells ([3]; CD3-CD28 culture, inhibitor 1 μM, 6 days treatment): 23.41%
- % of Pgp+ CD62L+cells out of live cells ([3]; CD3-CD28 culture, inhibitor 1 μM, 13 days treatment): 2.28%
- % of Pgp+ CD62L+cells out of live cells ([3]; CD3-IL2 culture, inhibitor 100 nM, 6 days treatment): 8.62%
- % of Pgp+ CD62L+cells out of live cells ([3]; CD3-IL2 culture, inhibitor 100 nM, 13 days treatment): 5.24%
- % of Pgp+ CD62L+cells out of live cells ([3]; CD3-IL2 culture, inhibitor 500 nM, 6 days treatment): 9.32%
- % of Pgp+ CD62L+cells out of live cells ([3]; CD3-IL2 culture, inhibitor 500 nM, 13 days treatment): 6.82%
- % of Pgp+ CD62L+cells out of live cells ([3]; CD3-IL2 culture, inhibitor 1 μM, 6 days treatment): 10.99%
- % of Pgp+ CD62L+cells out of live cells ([3]; CD3-IL2 culture, inhibitor 1 μM, 13 days treatment): 5.17%
- percentage of Pgp+CD62L+ cells [3, 5]: 13.33%
- % of CD62L+CCR7+ double positive cells out of CD45RA+ cells in CD8+ T cell population [4, 6]: 82.96%
- % of CD62L+CCR7+ double positive cells out of CD45RA+ cells in CD8+ T cell population [4, 7]: 82.42%
- % of CD62L+CCR7+ double positive cells out of CD45RA+ cells in CD8+ T cell population [4, 8]: 85.00%
- % of CD62L+CCR7+ double positive cells out of CD45RA+ cells in CD8+ T cell population [4, 9]: 85.28%
- % of CD62L+CCR7+ double positive cells out of CD45RA+ cells in CD8+ T cell population [4, 10]: 80.34%
- % of CD62L+CCR7+ double positive cells out of CD45RA+ cells in CD8+ T cell population [4, 11]: 85.70%
- % of CD62L+CCR7+ double positive cells out of CD45RA+ cells in CD8+ T cell population [4, 12]: 73.95%
- % of CD62L+CCR7+ double positive cells out of CD45RA+ cells in CD8+ T cell population [4, 13]: 77.29%
- % of CD62L+CCR7+ double positive cells out of CD45RA+ cells in CD8+ T cell population [4, 14]: 81.47%

Structure (SMILES): Cc1cc(C)c(CNC(=O)c2cc(-c3ccc(N4CCN(C)CC4)nc3)cc3c2c(C)cn3C(C)C)c(=O)[nH]1 [GSK503]
- p2: pgp+ from Live cells ([1]; 1 μM): 47.87
- p2: pgp+ from Live cells ([1]; 2 μM): 56.13
- GATE P6 CD45RA(FITC)+, CCR7 (PE)+, CD62L(APC) ([2]; 1 μM): 63.54%
- GATE P6 CD45RA(FITC)+, CCR7 (PE)+, CD62L(APC) ([2]; 2 μM): 62.62%
- p5: double +ve pgp+ and CD62L-APC+ from Live cells ([3]; 1 μM): 15.79
- p5: double +ve pgp+ and CD62L-APC+ from Live cells ([3]; 2 μM): 19.99
- GATE P4 CD8(PerCP)+, CD45RA(FITC)+, CCR7 (PE)+, CD62L(APC) ([4]; 1 μM): 75.24%
- GATE P4 CD8(PerCP)+, CD45RA(FITC)+, CCR7 (PE)+, CD62L(APC) ([4]; 2 μM): 75.8%
